The NIST ThermoML archive (doi:10.1021/je400332j)
Numbers after ± are expanded uncertainties.

Experiment: xn = mol fraction of the nth substance listed
Conditions: 101 kPa, Liquid; for viscosity: Concentric cylinders viscometry; for mass density: Vibrating tube method

CCCCCCn1cc[n+](C)c1.F[B-](F)(F)F [1-hexyl-3-methylimidazolium tetrafluoroborate] + CCn1cc[n+](C)c1.F[B-](F)(F)F
Conditions | mass density [kg/m3] | viscosity [mPa·s]
293.15 K, x2 = 0 | 1147.5 ± 1.1 | 280.4 ± 23
293.15 K, x2 = 0.1009 | 1157.3 ± 1.1 | 244.3 ± 20
293.15 K, x2 = 0.2005 | 1168.1 ± 1.1 | 210.7 ± 17
293.15 K, x2 = 0.3003 | 1179.5 ± 1.1 | 179.6 ± 15
293.15 K, x2 = 0.4001 | 1191.4 ± 1.1 | 151.7 ± 12
293.15 K, x2 = 0.4999 | 1204.3 ± 1.1 | 127.1 ± 10
293.15 K, x2 = 0.6007 | 1218.1 ± 1.1 | 105 ± 8.5
293.15 K, x2 = 0.7004 | 1232.7 ± 1.1 | 86.22 ± 7
293.15 K, x2 = 0.8001 | 1248.5 ± 1.1 | 69.78 ± 5.6
293.15 K, x2 = 0.8998 | 1265.3 ± 1.1 | 56.02 ± 4.5
298.15 K, x2 = 0 | 1144.1 ± 1.1 | 206.3 ± 17
298.15 K, x2 = 0.1009 | 1153.9 ± 1.1 | 180.8 ± 15
298.15 K, x2 = 0.2005 | 1164.7 ± 1.1 | 157.2 ± 13
298.15 K, x2 = 0.3003 | 1176.1 ± 1.1 | 135.1 ± 11
298.15 K, x2 = 0.4001 | 1188 ± 1.1 | 115.2 ± 9.4
298.15 K, x2 = 0.4999 | 1200.8 ± 1.1 | 97.48 ± 7.9
298.15 K, x2 = 0.6007 | 1214.6 ± 1.1 | 81.5 ± 6.6
298.15 K, x2 = 0.7004 | 1229.1 ± 1.1 | 67.79 ± 5.5
298.15 K, x2 = 0.8001 | 1244.9 ± 1.1 | 55.7 ± 4.5
298.15 K, x2 = 0.8998 | 1261.7 ± 1.1 | 45.42 ± 3.7
303.15 K, x2 = 0 | 1140.6 ± 1 | 154.9 ± 13
303.15 K, x2 = 0.1009 | 1150.5 ± 1.1 | 136.9 ± 11
303.15 K, x2 = 0.2005 | 1161.2 ± 1.1 | 119.8 ± 9.8
303.15 K, x2 = 0.3003 | 1172.5 ± 1.1 | 103.8 ± 8.4
303.15 K, x2 = 0.4001 | 1184.4 ± 1.1 | 89.33 ± 7.2
303.15 K, x2 = 0.4999 | 1197.2 ± 1.1 | 76.33 ± 6.2
303.15 K, x2 = 0.6007 | 1211 ± 1.1 | 64.52 ± 5.2
303.15 K, x2 = 0.7004 | 1225.5 ± 1.1 | 54.31 ± 4.4
303.15 K, x2 = 0.8001 | 1241.2 ± 1.1 | 45.2 ± 3.6
303.15 K, x2 = 0.8998 | 1257.9 ± 1.1 | 37.38 ± 3
308.15 K, x2 = 0 | 1137.2 ± 1 | 118.7 ± 9.7
308.15 K, x2 = 0.1009 | 1147.1 ± 1.1 | 105.5 ± 8.6
308.15 K, x2 = 0.2005 | 1157.8 ± 1.1 | 92.98 ± 7.5
308.15 K, x2 = 0.3003 | 1169 ± 1.1 | 81.23 ± 6.6
308.15 K, x2 = 0.4001 | 1180.9 ± 1.1 | 70.51 ± 5.7
308.15 K, x2 = 0.4999 | 1193.6 ± 1.1 | 60.8 ± 4.9
308.15 K, x2 = 0.6007 | 1207.4 ± 1.1 | 51.94 ± 4.2
308.15 K, x2 = 0.7004 | 1221.8 ± 1.1 | 44.18 ± 3.6
308.15 K, x2 = 0.8001 | 1237.5 ± 1.1 | 37.22 ± 3
308.15 K, x2 = 0.8998 | 1254.2 ± 1.1 | 31.18 ± 2.5
313.15 K, x2 = 0 | 1133.7 ± 1 | 92.56 ± 7.5
313.15 K, x2 = 0.1009 | 1143.6 ± 1.1 | 82.73 ± 6.7
313.15 K, x2 = 0.2005 | 1154.3 ± 1.1 | 73.45 ± 5.9
313.15 K, x2 = 0.3003 | 1165.5 ± 1.1 | 64.64 ± 5.2
313.15 K, x2 = 0.4001 | 1177.4 ± 1.1 | 56.57 ± 4.6
313.15 K, x2 = 0.4999 | 1190.1 ± 1.1 | 49.22 ± 4
313.15 K, x2 = 0.6007 | 1203.8 ± 1.1 | 42.45 ± 3.4
313.15 K, x2 = 0.7004 | 1218.2 ± 1.1 | 36.47 ± 2.9
313.15 K, x2 = 0.8001 | 1233.8 ± 1.1 | 31.06 ± 2.5
313.15 K, x2 = 0.8998 | 1250.4 ± 1.1 | 26.32 ± 2.1
318.15 K, x2 = 0 | 1130.3 ± 1 | 73.37 ± 5.9
318.15 K, x2 = 0.1009 | 1140.3 ± 1 | 65.95 ± 5.3
318.15 K, x2 = 0.2005 | 1150.9 ± 1.1 | 58.94 ± 4.8
318.15 K, x2 = 0.3003 | 1162 ± 1.1 | 52.24 ± 4.2
318.15 K, x2 = 0.4001 | 1173.9 ± 1.1 | 46.08 ± 3.7
318.15 K, x2 = 0.4999 | 1186.5 ± 1.1 | 40.41 ± 3.3
318.15 K, x2 = 0.6007 | 1200.2 ± 1.1 | 35.16 ± 2.8
318.15 K, x2 = 0.7004 | 1214.6 ± 1.1 | 30.49 ± 2.4
318.15 K, x2 = 0.8001 | 1230.1 ± 1.1 | 26.23 ± 2.1
318.15 K, x2 = 0.8998 | 1246.7 ± 1.1 | 22.48 ± 1.8
323.15 K, x2 = 0 | 1127 ± 1 | 59.03 ± 4.8
323.15 K, x2 = 0.1009 | 1136.9 ± 1 | 53.34 ± 4.3
323.15 K, x2 = 0.2005 | 1147.4 ± 1.1 | 47.98 ± 3.9
323.15 K, x2 = 0.3003 | 1158.5 ± 1.1 | 42.8 ± 3.4
323.15 K, x2 = 0.4001 | 1170.4 ± 1.1 | 38.02 ± 3.1
323.15 K, x2 = 0.4999 | 1183 ± 1.1 | 33.6 ± 2.7
323.15 K, x2 = 0.6007 | 1196.6 ± 1.1 | 29.48 ± 2.4
323.15 K, x2 = 0.7004 | 1211 ± 1.1 | 25.79 ± 2.1
323.15 K, x2 = 0.8001 | 1226.4 ± 1.1 | 22.4 ± 1.8
323.15 K, x2 = 0.8998 | 1242.9 ± 1.1 | 19.38 ± 1.6
328.15 K, x2 = 0 | 1123.6 ± 1 | 48.16 ± 3.9
328.15 K, x2 = 0.1009 | 1133.5 ± 1 | 43.73 ± 3.5
328.15 K, x2 = 0.2005 | 1144 ± 1.1 | 39.57 ± 3.2
328.15 K, x2 = 0.3003 | 1155.1 ± 1.1 | 35.51 ± 2.9
328.15 K, x2 = 0.4001 | 1166.9 ± 1.1 | 31.77 ± 2.6
328.15 K, x2 = 0.4999 | 1179.4 ± 1.1 | 28.27 ± 2.3
328.15 K, x2 = 0.6007 | 1192.9 ± 1.1 | 25.02 ± 2
328.15 K, x2 = 0.7004 | 1207.4 ± 1.1 | 22.05 ± 1.8
328.15 K, x2 = 0.8001 | 1222.7 ± 1.1 | 19.31 ± 1.6
328.15 K, x2 = 0.8998 | 1239.2 ± 1.1 | 16.85 ± 1.4
333.15 K, x2 = 0 | 1120.2 ± 1 | 39.71 ± 3.2
333.15 K, x2 = 0.1009 | 1130.1 ± 1 | 36.3 ± 2.9
333.15 K, x2 = 0.2005 | 1140.6 ± 1.1 | 33.02 ± 2.7
333.15 K, x2 = 0.3003 | 1151.6 ± 1.1 | 29.82 ± 2.4
333.15 K, x2 = 0.4001 | 1163.4 ± 1.1 | 26.83 ± 2.2
333.15 K, x2 = 0.4999 | 1176 ± 1.1 | 24.04 ± 1.9
333.15 K, x2 = 0.6007 | 1189.5 ± 1.1 | 21.41 ± 1.7
333.15 K, x2 = 0.7004 | 1203.8 ± 1.1 | 19.03 ± 1.5
333.15 K, x2 = 0.8001 | 1219.1 ± 1.1 | 16.8 ± 1.4
333.15 K, x2 = 0.8998 | 1235.6 ± 1.1 | 14.78 ± 1.2
338.15 K, x2 = 0 | 1116.8 ± 1 | 33.21 ± 2.7
338.15 K, x2 = 0.1009 | 1126.7 ± 1 | 30.47 ± 2.4
338.15 K, x2 = 0.2005 | 1137.2 ± 1 | 27.86 ± 2.2
338.15 K, x2 = 0.3003 | 1148.2 ± 1.1 | 25.3 ± 2
338.15 K, x2 = 0.4001 | 1160 ± 1.1 | 22.92 ± 1.8
338.15 K, x2 = 0.4999 | 1172.5 ± 1.1 | 20.64 ± 1.7
338.15 K, x2 = 0.6007 | 1186 ± 1.1 | 18.52 ± 1.5
338.15 K, x2 = 0.7004 | 1200.2 ± 1.1 | 16.56 ± 1.3
338.15 K, x2 = 0.8001 | 1215.5 ± 1.1 | 14.73 ± 1.2
338.15 K, x2 = 0.8998 | 1231.9 ± 1.1 | 13.05 ± 1.1
343.15 K, x2 = 0 | 1113.4 ± 1 | 28.03 ± 2.3
343.15 K, x2 = 0.1009 | 1123.4 ± 1 | 25.82 ± 2.1
343.15 K, x2 = 0.2005 | 1133.8 ± 1 | 23.74 ± 1.9
343.15 K, x2 = 0.3003 | 1144.8 ± 1.1 | 21.65 ± 1.7
343.15 K, x2 = 0.4001 | 1156.5 ± 1.1 | 19.72 ± 1.6
343.15 K, x2 = 0.4999 | 1169 ± 1.1 | 17.89 ± 1.4
343.15 K, x2 = 0.6007 | 1182.4 ± 1.1 | 16.11 ± 1.3
343.15 K, x2 = 0.7004 | 1196.7 ± 1.1 | 14.52 ± 1.2
343.15 K, x2 = 0.8001 | 1212 ± 1.1 | 13 ± 1.1
343.15 K, x2 = 0.8998 | 1228.3 ± 1.1 | 11.6 ± 0.93
